Where two headings read alike, the source gives them in different places.
Legend:
[1] = tested on: CAMA1 cells; assay: Cell proliferation assay (Sytox Green), CAMA1; type: cell-based; details: Homo sapiens, CAMA-1, 144 h; CAMA1, 6 days; read-out: growth inhibition IC50
Experimental: Cell proliferation was assessed by measuring live cell numbers using the Sytox Green assay. MCF7 and CAMA1 cells were seeded in 96-well clear-bottom black microplates (Costar) at 4x10^3 and 8x10^3 cells per well, respectively, based on the doubling time of each cell line. Plates were incubated at 37 °C, 5% CO2 for 24 hours prior to being treated with DMSO, AZ’6421 or fulvestrant in a 10-point concentration range, with a final DMSO concentration of 0.1%. A single plate was left untreated, designated a Day 0 plate. The number of live cells was determined at Day 0 and Day 7 using the Sytox green assay. Briefly, 5 mM Sytox green nucleic acid dye (Invitrogen) was diluted 1:2500 in 500 mM tris-buffered saline (TBS) with ethylenediaminetetraacetic acid (EDTA) and 7 μL was added per well. Plates were then incubated in the dark at room temperature for 1 hour and the number of green cells in each well (dead cells) was measured using an Acumen Explorer high-throughput cell imager (TTP Labtech). Next, 14 μL of 0.25% w/v Saponin in TBS/EDTA solution was added overnight to permeabilize the cells, permitting a total cell count. The number of live cells was calculated by subtracting the dead cell count from the total cell count. The data obtained were then used to perform curve fitting analysis using GraphPad Prism. Average cell counts from the Day 0 plate were used to determine 0% cell growth. […]

[2] = Mouse pharmacokinetics, i.v./oral and enabling formulations; type: in vivo
Experimental: (*) AUC0-6 (data BLQ beyond 6 hours). TEXT PRINTED IN THE PICTURE: (e) Formulation SF: Dose normalised Cmax (μM): 0.009 (Oral dose (mg/kg): 1); Dose normalised AUC0-12 (μM.h): 0.02* (Oral dose (mg/kg): 1) | (e) Formulation EF1: Dose normalised Cmax (μM): 0.023 (Oral dose (mg/kg): 100); Dose normalised AUC0-12 (μM.h): 0.22 (Oral dose (mg/kg): 100) | (e) Formulation EF2: Dose normalised Cmax (μM): 0.002 (Oral dose (mg/kg): 100); Dose normalised AUC0-12 (μM.h): 0.009 (Oral dose (mg/kg): 100) | (e) Formulation EF3: Dose normalised Cmax (μM): 0.045 (Oral dose (mg/kg): 100); Dose normalised AUC0-12 (μM.h): 0.12 (Oral dose (mg/kg): 100); Dose normalised Cmax (μM): 0.016 (Oral dose (mg/kg): 30); Dose normalised AUC0-12 (μM.h): 0.06* (Oral dose (mg/kg): 30); Dose normalised Cmax (μM): 0.017 (Oral dose (mg/kg): 10); Dose normalised AUC0-12 (μM.h): 0.06* (Oral dose (mg/kg): 10) | (e) Formulation EF4: Dose normalised Cmax (μM): 0.022 (Oral dose (mg/kg): 100); Dose normalised AUC0-12 (μM.h): 0.10 (Oral dose (mg/kg): 100) | (e) Formulation EF5: Dose normalised Cmax (μM): 0.050 (Oral dose (mg/kg): 100); Dose normalised AUC0-12 (μM.h): 0.25 (Oral dose (mg/kg): 100); Dose normalised Cmax (μM): 0.013 (Oral dose (mg/kg): 30); Dose normalised AUC0-12 (μM.h): 0.045* (Oral dose (mg/kg): 30); Dose normalised Cmax (μM): 0.023 (Oral dose (mg/kg): 10); Dose normalised AUC0-12 (μM.h): 0.076* (Oral dose (mg/kg): 10)
Each plasma sample ([…]) was prepared using an appropriate dilution factor, and compared against an 11-point standard calibration curve (1-10000 nM) prepared in DMSO and spiked into blank plasma. Acetonitrile ([…]) was added with the internal standard, followed by centrifugation at 3000 rpm for 10 minutes. The supernatant ([…]) was then diluted in […] acetonitrile:water (75:25) and analyzed via UPLC-MS/MS.
The MS/MS instrument used was either a Waters XEVO® TQ-S, Waters XEVO® TQ-D, or API 4000 (AB Sciex). The ultra-mass spectrometer used for sample analysis was completed in the MRM mode (MS/MS). Reverse-phase HPLC with a C18 column was used to separate the analytes. A mobile phase of 99% water/0.1% formic acid (solvent A) and a solvent phase of 99% acetonitrile/0.1% formic acid (solvent B) was used. A generic LC gradient elution was used at a flow rate of 0.5 mL/min with 95% solvent A and 5% solvent B for 0.3 min after which the concentration of solvent B was increased to 95% over 0.9 min before restoring it back to 5% for the remaining 0.5 min. Mass spectrometer methods were optimised for each compound.

Cc1ncsc1-c1ccc(CNC(=O)[C@@H]2C[C@@H](O)CN2C(=O)[C@@H](NC(=O)COCCCOCCCOc2cc(F)c([C@@H]3c4[nH]c5ccccc5c4C[C@@H](C)N3CC(C)(C)F)c(F)c2)C(C)(C)C)cc1 [Compound 5]
IC50 [1]: 0.2 nM | Plasma conc (total) ([2]; IV 0.5 mg/kg, mouse, 0.03 h, listed as AZ'6421, 0.5 mg/kg): 1770 nM | Plasma conc (total) ([2]; IV 0.5 mg/kg, 0.17 h, listed as AZ'6421, 0.5 mg/kg): 219 nM | Plasma conc (total) ([2]; IV 0.5 mg/kg, 0.5 h, listed as AZ'6421, 0.5 mg/kg): 58.2 nM | Plasma conc (total) ([2]; IV 0.5 mg/kg, 1 h, listed as AZ'6421, 0.5 mg/kg): 27.9 nM | Plasma conc (total) ([2]; IV 0.5 mg/kg, 2 h, listed as AZ'6421, 0.5 mg/kg): 15.2 nM | Plasma conc (total) ([2]; IV 0.5 mg/kg, 4 h, listed as AZ'6421, 0.5 mg/kg): 6.74 nM | Plasma conc (total) ([2]; IV 0.5 mg/kg, 6 h, listed as AZ'6421, 0.5 mg/kg): 4.38 nM | Plasma conc (total) ([2]; IV 0.5 mg/kg, 8 h, listed as AZ'6421, 0.5 mg/kg): 2.82 nM | Plasma conc (total) ([2]; Oral 1 mg/kg in SF, mouse, 0.5 h, listed as AZ'6421, 1 mg/kg): 4.03 nM | Plasma conc (total) ([2]; Oral 1 mg/kg in SF, 1 h, listed as AZ'6421, 1 mg/kg): 6.69 nM | concentration at 0.03 h ([2]; mouse, plasma, iv, 0.5 mg/kg, IV 0.5 mg/kg, mouse, 0.03 h, read-out: Plasma conc (total)): 1990 nM | concentration at 0.17 h ([2]; mouse, plasma, iv, 0.5 mg/kg, IV 0.5 mg/kg, 0.17 h, read-out: Plasma conc (total)): 261 nM | concentration at 0.5 h ([2]; mouse, plasma, iv, 0.5 mg/kg, IV 0.5 mg/kg, 0.5 h, read-out: Plasma conc (total)): 89 nM | concentration at 1 h ([2]; mouse, plasma, iv, 0.5 mg/kg, IV 0.5 mg/kg, 1 h, read-out: Plasma conc (total)): 41.9 nM | concentration at 2 h ([2]; mouse, plasma, iv, 0.5 mg/kg, IV 0.5 mg/kg, 2 h, read-out: Plasma conc (total)): 16.9 nM | concentration at 4 h ([2]; mouse, plasma, iv, 0.5 mg/kg, IV 0.5 mg/kg, 4 h, read-out: Plasma conc (total)): 7.09 nM | concentration at 6 h ([2]; mouse, plasma, iv, 0.5 mg/kg, IV 0.5 mg/kg, 6 h, read-out: Plasma conc (total)): 3.27 nM | concentration at 8 h ([2]; mouse, plasma, iv, 0.5 mg/kg, IV 0.5 mg/kg, 8 h, read-out: Plasma conc (total)): 2.02 nM | clearance ([2]; mouse, plasma, iv, 0.5 mg/kg i.v., read-out: mouse in vivo clearance): 22 mL/min/kg | concentration at 0.5 h ([2]; mouse, plasma, po, 1 mg/kg, Oral 1 mg/kg in SF, mouse, 0.5 h, read-out: Plasma conc (total)): 2.24 nM | concentration at 1 h ([2]; mouse, plasma, po, 1 mg/kg, Oral 1 mg/kg in SF, 1 h, read-out: Plasma conc (total)): 9.06 nM | concentration at 4 h ([2]; mouse, plasma, po, 1 mg/kg, Oral 1 mg/kg in SF, 4 h, read-out: Plasma conc (total)): 2.98 nM | AUC ([2]; plasma, po, 1 mg/kg p.o., SF, mouse, read-out: oral exposure (AUC)): 0.02 µM·h

Source: paper PMC11091220, “Metabolism-driven in vitro/in vivo disconnect of an oral ERɑ VHL-PROTAC” (Communications Biology, 2024)
